Test results: patent publication US7728043B2, “Methods for treatment of beta-amyloid protein-induced ocular disease” (priority 1999, dated 2010)

How the values were obtained:
[1] = tested on: cells treated with βA peptide; assay: Protection of cells from βA peptide insult, statements in words (MTT assay, cells not singled out); format: cell-based; details: MTT reduction assay; PC12, IMR32, HUVEC cells where named in the sentence
Procedure: (§1) The degree of βA insult was measured by 3-[4,5-dimethylthiazol-2-yl]-2,5-diphenyltetrazolium bromide (MTT) reduction assay. […] The detection of cell growth or cell death can be determined by observing the conversion of MTT to the colored product, MTT formazan, the concentration of which can be measured […] at 550 nm.
(§2) Cells were incubated in MTT solution (5 mg/ml) at 37° C. for 2 hours. During this time, cells were observed under a microscope every 15 min. Cells were incubated in Lysing buffer (100 μl) overnight at 37° C. Colorimetric determination of MTT reduction was made at 550 nm.

[2] = tested on: PC12 cells; assay: MTT reduction assay, βA peptide-induced toxicity, PC12 cells; format: cell-based, rat; details: for Anti-βA peptide(1-42) ED50 PC12 / Anti-βA peptide(25-35) ED50 PC12: Table 4, ginkgo compounds; for Protection of PC12 cells from βA peptide insults (control study): even at 200 μg/ml, βA peptide(25-35) and βA peptide(1-42); for ED50 of βA peptide toxicity to PC12 cells: peptide alone, collagen-coated 96-well plates
Procedure: as §1, §2
(§3) PC12 rat pheochromocytoma and IMR32 human neuroblastoma cells were obtained from the American Type Culture Collection (ATCC). HUVEC normal umbilical human vein endothelial cells were obtained from Clonetics (San Diego, Calif.). Cells were routinely cultured on a tissue culture plate (Corning, N.Y., N.Y.). PC12 cells were grown in high glucose Dulbecco's Modified Eagle Medium (DMEM), 10% horse serum, 5% fetal calf serum, and 1% penicillin/streptomycin. IMR32 cells were grown in 90% DMEM and 10% fetal calf serum with 1% penicillin/streptomycin. HUVEC cells were grown in EGM-2 Bullet Kit (Clonetics, San Diego, Calif.).
PC12 cells were cultured routinely on polystyrene-coated Corning tissue culture plates. […] The 96-well plates were coated with rat tail collagen (Boehringer Mannheim) in order to promote uniform PC12 cell attachment and growth.

[3] = tested on: HUVEC cells; assay: MTT reduction assay, βA peptide-induced toxicity, HUVEC cells; format: cell-based, human; details: for Anti-βA peptide(1-42) ED50 HUVEC / Anti-βA peptide(25-35) ED50 HUVEC: Table 4, ginkgo compounds
Procedure: as §1, §2, §3

[4] = tested on: IMR32 cells; assay: MTT reduction assay, βA peptide-induced toxicity, IMR32 cells; format: cell-based, human; details: for Anti-βA peptide(1-42) ED50 IMR32 / Anti-βA peptide(25-35) ED50 IMR32: Table 4, ginkgo compounds; for ED50 of βA peptide toxicity to IMR32 cells: peptide alone
Procedure: as §1, §2, §3

Compound | Protection of cells from βA peptide-induced toxicity, in words [1] | Anti-βA peptide(1-42) ED50 PC12 [2] | Anti-βA peptide(25-35) ED50 PC12 [2] | Anti-βA peptide(1-42) ED50 HUVEC [3] | Anti-βA peptide(25-35) ED50 HUVEC [3] | Anti-βA peptide(1-42) ED50 IMR32 [4] | Anti-βA peptide(25-35) ED50 IMR32 [4] | Protection of PC12 cells from βA peptide insults (control study) [2] | other results
CCCCCCCCC=CC(=O)CCc1ccc(O)cc1 [Compound 50, [9]-demethoxyshogaol] | effectively protected | – | – | – | – | – | – | – | –
C[C@@H]1C(=O)O[C@H]2C[C@@]34[C@H]5C[C@@H](C(C)(C)C)[C@]36[C@@H](OC(=O)[C@@H]6O)O[C@@]4(C(=O)O5)[C@]21O [Ginkgolide A, reference compound] | do not possess biological activity | toxic | toxic | toxic | toxic | toxic | toxic | – | –
CC1C(=O)OC2C(O)C34C5CC(C(C)(C)C)C36C(OC(=O)C6O)OC4(C(=O)O5)C12O (centres unmarked) [Ginkgolide B, reference compound] | do not possess biological activity | toxic | toxic | toxic | toxic | toxic | toxic | – | –
O=c1c(O)c(-c2ccc(O)c(O)c2)oc2cc(O)cc(O)c12 [Quercetin, reference compound] | do not possess biological activity | >20 µg/mL | >20 µg/mL | >20 µg/mL | >20 µg/mL | >20 µg/mL | >20 µg/mL | – | –
CC1=C(/C=C/C(C)=C/C=C/C(C)=C/CO)C(C)(C)CCC1 [vitamin A, reference compound] | – | – | – | – | – | – | – | did not protect | –
O=C1O[C@H]([C@@H](O)CO)C(O)=C1O [vitamin C, reference compound] | – | – | – | – | – | – | – | did not protect | –
Cc1c(C)c2c(c(C)c1O)CCC(C)(CCCC(C)CCCC(C)CCCC(C)C)O2 (centres unmarked) [vitamin E, reference compound] | – | – | – | – | – | – | – | did not protect | –
CC1=C(/C=C/C(C)=C/C=C/C(C)=C/C=C/C=C(C)/C=C/C=C(C)/C=C/C2=C(C)CCCC2(C)C)C(C)(C)CCC1 [β-carotene, reference compound] | – | – | – | – | – | – | – | did not protect | –
Ginkgolide C [reference compound] | do not possess biological activity | toxic | toxic | toxic | toxic | toxic | toxic | – | –
βA peptide (1-42): beta-amyloid peptide 1-42 used as the toxic insult [reference compound] | – | – | – | – | – | – | – | – | ED50 of βA peptide toxicity to PC12 cells [2]: 5.0 µg/mL; ED50 of βA peptide toxicity to IMR32 cells [4]: 6.0 µg/mL
βA peptide (25-35): beta-amyloid peptide fragment 25-35 used as the toxic insult (GSNKGAIIGLM; Amyloid-beta protein 42; UniProt P05067 696-706, looked up, fragment) [reference compound] | – | – | – | – | – | – | – | – | ED50 of βA peptide toxicity to PC12 cells [2]: 1.0 µg/mL; ED50 of βA peptide toxicity to HUVEC cells ([3]; peptide alone): 6.0 µg/mL; ED50 of βA peptide toxicity to IMR32 cells [4]: 3.0 µg/mL
